The structures appear in SMILES notation.

The values below come from patent US20260008770A1, “CBL-B INHIBITORS AND METHODS OF USES THEREOF” (Insilico Medicine IP Limited, priority 2022, published 2026).

Chain of Cbl-b protein (CBL-B, GST-Tag) (Q13191 whole entry): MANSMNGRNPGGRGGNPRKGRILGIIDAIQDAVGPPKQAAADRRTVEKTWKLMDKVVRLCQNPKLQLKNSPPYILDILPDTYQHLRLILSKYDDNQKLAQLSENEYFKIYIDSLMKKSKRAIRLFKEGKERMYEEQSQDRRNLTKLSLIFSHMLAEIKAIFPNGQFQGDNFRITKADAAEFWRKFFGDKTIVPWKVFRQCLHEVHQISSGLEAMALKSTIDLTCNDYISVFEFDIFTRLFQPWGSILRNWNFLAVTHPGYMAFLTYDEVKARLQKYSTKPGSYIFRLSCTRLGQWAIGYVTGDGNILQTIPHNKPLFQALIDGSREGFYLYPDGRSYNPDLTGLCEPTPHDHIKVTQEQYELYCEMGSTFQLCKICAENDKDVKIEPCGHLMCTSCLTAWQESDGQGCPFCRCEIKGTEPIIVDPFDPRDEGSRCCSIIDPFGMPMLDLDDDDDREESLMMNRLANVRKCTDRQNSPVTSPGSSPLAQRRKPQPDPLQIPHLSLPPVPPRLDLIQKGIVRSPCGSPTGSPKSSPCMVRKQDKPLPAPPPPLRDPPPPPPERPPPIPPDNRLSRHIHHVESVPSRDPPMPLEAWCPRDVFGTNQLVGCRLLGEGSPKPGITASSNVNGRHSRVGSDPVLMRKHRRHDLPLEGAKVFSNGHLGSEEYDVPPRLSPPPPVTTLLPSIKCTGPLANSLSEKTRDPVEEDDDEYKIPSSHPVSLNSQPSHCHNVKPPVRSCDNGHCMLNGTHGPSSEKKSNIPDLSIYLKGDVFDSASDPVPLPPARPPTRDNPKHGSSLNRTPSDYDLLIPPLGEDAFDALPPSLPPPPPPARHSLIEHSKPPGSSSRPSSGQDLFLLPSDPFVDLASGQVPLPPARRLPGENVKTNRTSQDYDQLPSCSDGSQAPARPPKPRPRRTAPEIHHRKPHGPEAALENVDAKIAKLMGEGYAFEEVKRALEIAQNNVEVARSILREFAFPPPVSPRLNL

One experiment concerns the target Cbl-b protein (CBL-B, GST-Tag) (Homo sapiens (Human), UniProt Q13191). Description: HTRF based binding assay, affinity to Cbl-b protein.
Details: not given
Consider `C[C@H]1CCCN(Cc2cc(C(F)(F)F)c3ncn(-c4cc([C@]5(c6nncn6C6CCC6)C[C@@H](C)C5)ccn4)c(=O)c3c2)C1` [Example 110], for which the IC50 lay within 50 to 500 nM.

As for `C[C@H]1CCCN(Cc2cc(C(F)(F)F)c3cnn(-c4cc([C@]5(c6nncn6C)C[C@H](C)C5)ccn4)c(=O)c3c2)C1` [Example 65], the IC50 was 500 to 1000 nM.

`CC1=CCCN(Cc2cc(C(F)(F)F)c3cn(-c4cccc(C5(c6nncn6C)CC(C)C5)c4)nc3c2)C1` (centres unmarked) [Example 79] gave an IC50 of 20 to 50 nM.

In turn, `C[C@H]1CCCN(Cc2cc(C(=O)Nc3cccc(C(c4nncn4C)C4CCC4)c3)cc(C(F)(F)F)c2)C1` (some centres unmarked) [Example 31] displayed a half-inhibitory concentration (IC50) of 50 to 500 nM.

Turning to `CC1CC(c2ccc(F)c(-n3cc4c(C(F)(F)F)cc(CN5CCC[C@H](C)C5)cc4n3)c2)(c2nncn2C)C1` (some centres unmarked) [Example 72], the IC50 lay within 20 to 50 nM.

With `CC1CC(c2cc(Cl)nc(-n3cnc4c(C(F)(F)F)cc(CN5CCC[C@H](C)C5)cc4c3=O)c2)(c2nncn2C)C1` (some centres unmarked) [Example 41], the IC50 is 20 to 50 nM.

`CC1CC(c2cccc(NC(=O)c3cc(CN4CCC[C@H](C)C4)cc4c3OC(F)(F)O4)c2)(c2nncn2C)C1` (some centres unmarked) [Example 25]: the IC50 was in the range of 20 to 50 nM.

In the case of `Cn1cnnc1[C@]1(c2cccc(-n3cc4c(C(F)(F)F)cc(CN5CCOC6(CCC6)C5)cc4n3)c2)C[C@H](C)C1` [Example 40], the half-inhibitory concentration (IC50) was 50 to 500 nM.

`C[C@H]1CCCN(Cc2cc(C(F)(F)F)c3cn(-c4cccc(C5(c6nncn6C)CC(=O)C5)c4)nc3c2)C1` [Example 68] displayed an IC50 of 50 to 500 nM.

In the case of `C[C@H]1CCCN(Cc2cc(C(F)(F)F)c3cnn(-c4cccc(C5(c6nncn6C)CC(F)(F)C5)c4)c(=O)c3c2)C1` [Example 83], the IC50 lay in the range of 50 to 500 nM.

`C[C@H]1CCCN(Cc2cc(C(F)(F)F)c3ncn(-c4cc(C5(Cc6nncn6C)COC5)ccn4)c(=O)c3c2)C1` [Example 35]: the IC50 lay within 50 to 500 nM.

The molecule `CC1CC(c2cncc(-n3ncc4c(C(F)(F)F)cc(CN5CCC[C@H](C)C5)cc4c3=O)c2)(c2nncn2C)C1` (some centres unmarked) [Example 54] yielded a half-inhibitory concentration (IC50) of 50 to 500 nM.

In turn, `COCC1CC(c2cccc(-n3cc4c(C(F)(F)F)cc(CN5CCC[C@H](C)C5)cc4n3)c2)(c2nncn2C)C1` (some centres unmarked) [Example 33] registered an IC50 of 20 to 50 nM.

Regarding `CC1CC(c2cccc(-n3nc(C(F)(F)F)c4ccc(CN5CCC[C@H](C)C5)cc4c3=O)c2)(c2nncn2C)C1` (some centres unmarked) [Example 9], the IC50 was in the range of 50 to 500 nM.

Molecule `CC1CC(c2cccc(NC(=O)c3cc(CN4CCC[C@H](C)C4)cc(C(F)(F)F)c3)c2)(c2nncn2C)C1` (some centres unmarked) [Example 30] registered an IC50 of 20 to 50 nM.

In the case of `C[C@H]1CCCN(Cc2cc(C(F)(F)F)c3cn(-c4cc([C@]5(c6nncn6C)C[C@@H](C)C5)ccn4)nc3c2)C1` (single isomer, unassigned) [Example 58], the IC50 lay within 20 to 50 nM.

The molecule `CC1CC(c2cccc(-n3cc4c(C(F)(F)F)cc(CN5CCC[C@@](C)(O)C5)cc4n3)c2)(c2nncn2C)C1` (some centres unmarked) [Example 89] came in with an IC50 of 50 to 500 nM.

`Cn1cnnc1[C@]1(c2cc(OCF)nc(-n3cnc4ccc(CN5CCC[C@H](F)C5)cc4c3=O)c2)C[C@H](C)C1` [Example 98]: the IC50 is 50 to 500 nM.

For the molecule `CC1CC(c2cc(CO)cc(-n3cc4c(C(F)(F)F)cc(CN5CCC[C@H](C)C5)cc4n3)c2)(c2nncn2C)C1` (some centres unmarked) [Example 60], the IC50 is 50 to 500 nM.

Consider `C[C@H]1CCCN(Cc2cc(C(F)(F)F)c3ncn(-c4cccc(C5(Cc6nncn6C)COC5)c4)c(=O)c3c2)C1` [Example 80, (S)-3-(3-(3-((4-methyl-4H-1,2,4-triazol-3-yl)methyl)oxetan-3-yl)phenyl)-6-((3-methylpiperidin-1-yl)methyl)-8-(trifluoromethyl)quinazolin-4(3H)-one], for which the half-inhibitory concentration (IC50) lay within 500 to 1000 nM.

The molecule `Cn1cnnc1[C@]1(c2ccnc(-n3ncc4c(C(F)(F)F)cc(CN5CCC6(CC6)C5)cc4c3=O)c2)C[C@H](C)C1` [Example 36] registered an IC50 of 20 to 50 nM.

In the case of `CC1CC(c2cc(C#N)cc(-n3cc4c(C(F)(F)F)cc(CN5CCC[C@H](C)C5)cc4n3)c2)(c2nncn2C)C1` (some centres unmarked) [Example 53], the IC50 fell in the range of 50 to 500 nM.

As to `C[C@H]1CCCN(Cc2cc3c(=O)n(-c4cc([C@]5(c6nncn6C)C[C@@H](C)C5)cc(OCF)n4)cnc3cn2)C1` [Example 99], the IC50 is under 20 nM.

`CC1=CCCN(Cc2cc(C(F)(F)F)c3cnn(-c4cccc(C5(c6nncn6C)CC(C)C5)c4)c(=O)c3c2)C1` (centres unmarked) [Example 21] gave an IC50 of 50 to 500 nM.

Turning to `CC1CC(c2cccc(-n3ncc4c(C(F)(F)F)cc(CN5CCC[C@H](C)C5)cc4c3=O)c2)(c2nncn2C)C1` (some centres unmarked) [Example 6], the IC50 was 20 to 50 nM.

For `C#C[C@H]1CCCN(Cc2cc(C(F)(F)F)c3ncn(-c4cc([C@]5(c6nncn6C)C[C@@H](C)C5)ccn4)c(=O)c3c2)C1` [Example 61], the IC50 was in the range of 20 to 50 nM.

For the molecule `C[C@H]1CCCN(Cc2cc(C(F)(F)F)c3ncn(-c4cc(C5(c6nncn6C)CC6(CC6)C5)ccn4)c(=O)c3c2)C1` [Example 118], the IC50 lay within 20 to 50 nM.

Take `Cn1cnnc1[C@]1(c2ccnc(-n3cnc4c(C(F)(F)F)cc(CN5CCC6(CCO6)C5)cc4c3=O)c2)C[C@H](C)C1` (some centres unmarked) [Example 120]: the IC50 was 500 to 1000 nM.

`[2H]C([2H])([2H])n1cnnc1C1(c2ccnc(-n3cnc4c(C(F)(F)F)cc(CN5CCC[C@H](C)C5)cc4c3=O)c2)CC(C)C1` (some centres unmarked) [Example 121] gave a half-inhibitory concentration (IC50) of under 20 nM.

On to `C#CC1CCCN(Cc2cc(C(F)(F)F)c3cnn(-c4cccc(C5(c6nncn6C)CC(C)C5)c4)c(=O)c3c2)C1` (centres unmarked) [Example 20], for which the IC50 fell in the range of 500 to 1000 nM.

On to `C[C@H]1CCCN(Cc2cc(C(F)(F)F)c3cn(-c4cccc(C5(c6nncn6C)CC(F)(F)C5)c4)nc3c2)C1` [Example 87], for which the IC50 fell in the range of 20 to 50 nM.

Staying with this experiment, now noted: HTRF binding, CBL-B (GST-Tag), fluorescence labeled Cbl-b binding probe.
Molecule `C[C@H]1CCCN(Cc2cc(C(F)(F)F)c3sc(-c4cccc(C5(Cc6nncn6C)COC5)c4)nc3c2)C1` [Example 16] came in with an IC50 of under 20 nM.

For `C[C@H]1CCCN(Cc2cc(C(F)(F)F)c3cn(-c4cc(C5(Cc6nncn6C)COC5)cc5c4OCC5)nc3c2)C1` [Example 75], the IC50 was under 20 nM.

On to `CC1CC(c2cccc(-n3cc4c(C(F)(F)F)cc(CN5CCC[C@H](C)C5)cc4n3)c2)(c2nncn2C)C1` (some centres unmarked) [Example 7], for which the IC50 was under 20 nM.

`C[C@H]1CCCN(Cc2cc(C(=O)Nc3cccc([C@@H](c4nncn4C)C4COC4)c3)cc(C(F)(F)F)c2)C1` [Example 26] gave an IC50 of over 1000 nM.

Regarding `COc1cc([C@]2(c3nncn3C)C[C@@H](C)C2)cc(-n2cnc3c(C(F)(F)F)cc(CN4CCC[C@H](C)C4)cc3c2=O)n1` [Example 115], the IC50 is under 20 nM.

Molecule `CC1CC(c2cccc(-n3cc(C(F)(F)F)c4ccc(CN5CCC[C@H](C)C5)cc4c3=O)c2)(c2nncn2C)C1` (some centres unmarked) [Example 12] had a half-inhibitory concentration (IC50) of under 20 nM.

`C[C@H]1CCCN(Cc2cc3c(=O)n(-c4cc([C@]5(c6nncn6C)C[C@@H](C)C5)cc(OCF)n4)cnc3cc2F)C1` [Example 100] yielded a half-inhibitory concentration (IC50) of under 20 nM.

Turning to `Cn1cnnc1[C@]1(c2cc(OCF)nc(-n3cnc4c(C(F)(F)F)cc(CN5CCC[C@H](F)C5)cc4c3=O)c2)C[C@H](C)C1` [Example 102], the IC50 is under 20 nM.

`C[C@H]1CCCN(Cc2cc(C(F)(F)F)c3cn(-c4cccc(C5(c6nncn6C)CC(CC#N)C5)c4)nc3c2)C1` (some centres unmarked) [Example 90] yielded an IC50 of under 20 nM.

Molecule `CC1CC(c2cc(C(N)=O)cc(-n3cc4c(C(F)(F)F)cc(CN5CCC[C@H](C)C5)cc4n3)c2)(c2nncn2C)C1` (some centres unmarked) [Example 52] yielded an IC50 of under 20 nM.

The molecule `CC1CN(Cc2cc(C(F)(F)F)c3ncn(-c4cc([C@]5(c6nncn6C)C[C@@H](C)C5)cc(OCF)n4)c(=O)c3c2)CCC1(F)F` (some centres unmarked) [Example 109] returned an IC50 of under 20 nM.

For the molecule `C[C@H]1CCCN(Cc2cc(C(F)(F)F)c3ncn(-c4cc([C@]5(c6nncn6C(F)F)C[C@@H](C)C5)ccn4)c(=O)c3c2)C1` [Example 48], the half-maximal inhibitory concentration (IC50) is under 20 nM.

For the molecule `C[C@H]1CCCN(Cc2cc(F)c3ncn(-c4cc([C@]5(c6nncn6C)C[C@@H](C)C5)cc(OCF)n4)c(=O)c3c2)C1` [Example 111], the IC50 was under 20 nM.

As for `C[C@H]1CCCN(Cc2ccc3ncn(-c4cc([C@]5(c6nncn6C(F)F)C[C@@H](C)C5)cc(OCF)n4)c(=O)c3c2)C1` [Example 124], the IC50 is under 20 nM.

As to `C[C@H]1CCCN(Cc2ccc3ncn(-c4cc([C@]5(c6nncn6C)C[C@@H](C)C5)cc(OCF)n4)c(=O)c3c2)C1` [Example 112], the IC50 was under 20 nM.

As to `CC1CC(c2cccc(NC(=O)c3cc(CN4CCC[C@H](C)C4)cc4c3OCCC4(F)F)c2)(c2nncn2C)C1` (some centres unmarked) [Example 24], the IC50 was under 20 nM.

In the case of `C[C@H]1CCCN(Cc2ccc3ncn(-c4cc([C@]5(c6nncn6C)C[C@@H](C)C5)cc(C5CC5)n4)c(=O)c3c2)C1` [Example 96], the half-maximal inhibitory concentration (IC50) was under 20 nM.

As to `CC1CC(c2cncc(-n3ncc4c(C(F)(F)F)cc(CN5CCC[C@H](C)C5)cc4c3=O)c2)(c2nncn2C)C1` (some centres unmarked) [Example 77], the IC50 is under 20 nM.

Turning to `C=Cc1cc([C@]2(c3nncn3C)C[C@@H](C)C2)cc(-n2cnc3ccc(CN4CCC[C@H](C)C4)cc3c2=O)n1` [Example 94], the 50% inhibitory concentration (IC50) was under 20 nM.

As to `C#CC1CC(c2cccc(-n3cc4c(C(F)(F)F)cc(CN5CCC[C@H](C)C5)cc4n3)c2)(c2nncn2C)C1` (some centres unmarked) [Example 32], the IC50 is under 20 nM.

Consider `CC(c1ccc2ncn(-c3cc([C@]4(c5nncn5C)C[C@@H](C)C4)cc(OCF)n3)c(=O)c2c1)N1CCC[C@H](C)C1` (some centres unmarked) [Example 95], for which the IC50 is under 20 nM.

As for `C[C@H]1CCCN(Cc2cc(C(=O)Nc3cccc([C@]4(c5nncn5C)C[C@H](C)C4)c3)c(F)c(C(F)(F)F)c2)C1` [Example 29], the 50% inhibitory concentration (IC50) is under 20 nM.

`C#C[C@H]1CCCN(Cc2cc(C(F)(F)F)c3cn(-c4cccc([C@]5(c6nncn6C)C[C@@H](C)C5)c4)nc3c2)C1` [Example 56]: the IC50 is under 20 nM.

In turn, `C=C(F)c1cc([C@]2(c3nncn3C)C[C@@H](C)C2)cc(-n2cnc3c(C(F)(F)F)cc(CN4CCC[C@H](C)C4)cc3c2=O)n1` [Example 107] had a half-maximal inhibitory concentration (IC50) of under 20 nM.

In turn, `C#C[C@H]1CCCN(Cc2cc(C(F)(F)F)c3cn(-c4cccc(C5(Cc6nncn6C)COC5)c4)nc3c2)C1` [Example 69] yielded an IC50 of under 20 nM.
